Target: GSK-3β (Homo sapiens, UniProt P49841)
Experiment: Kinase luminescent assay (ADP-Glo), GSK-3β inhibition
Type: biochemical
Conditions: 25 μM ATP, 1 hour, room temperature; mean of quadruplicate of two experiments; read-out: IC50 against GSK-3β
Procedure: Kinase Luminescent Assay.
Kinase inhibition was assessed with the ADP-Glo Kinase Assay. […] The reaction mixture was incubated for 1 hour at room temperature followed by the addition of the ADP-Glo′ reagents according to the manufacturer's protocol. The kinase inhibitor staurosporine was used at 1 μM as a reference control. Each data point was collected in quadruplicate of two independent experiments.

Chain of GSK-3β (P49841 whole entry): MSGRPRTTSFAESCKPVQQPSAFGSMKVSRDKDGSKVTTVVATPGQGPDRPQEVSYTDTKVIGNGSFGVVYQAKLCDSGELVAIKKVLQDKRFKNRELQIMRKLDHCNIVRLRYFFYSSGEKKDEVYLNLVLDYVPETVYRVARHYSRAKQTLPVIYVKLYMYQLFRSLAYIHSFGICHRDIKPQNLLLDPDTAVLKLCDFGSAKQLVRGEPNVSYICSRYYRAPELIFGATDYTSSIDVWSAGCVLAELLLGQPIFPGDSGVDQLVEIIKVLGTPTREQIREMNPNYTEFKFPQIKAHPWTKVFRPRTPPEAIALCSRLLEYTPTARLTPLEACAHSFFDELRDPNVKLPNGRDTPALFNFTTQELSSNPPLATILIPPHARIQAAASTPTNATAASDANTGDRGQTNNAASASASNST

| Structure (SMILES) | IC50 [µM] |
| --- | --- |
| COc1ccc(-c2cc(=O)c3c(OC)c([C@@H]4O[C@H](C(=O)Nc5ccccc5)[C@@H](O)[C@H](O)[C@H]4O)c(OC)cc3o2)cc1OC [Compound 20, (2S,3S,4R,5R,6S)-6-(2-(3,4-Dimethoxyphenyl)-5,7-dimethoxy-4-oxo-4H-chromen-6-yl)-3,4,5-trihydroxy-N-phenyltetrahydro-2H-pyran-2-carboxamide] | 19.7 ± 1.1 |
| COc1ccc(-c2cc(=O)c3c(OC)c([C@@H]4O[C@H](C(=O)NC5CCC5)[C@@H](O)[C@H](O)[C@H]4O)c(OC)cc3o2)cc1OC [Compound 15, (2S,3S,4R,5R,6S)—N-Cyclobutyl-6-(2-(3,4-dimethoxyphenyl)-5,7-dimethoxy-4-oxo-4H-chromen-6-yl)-3,4,5-trihydroxytetrahydro-2H-pyran-2-carboxamide] | 61.9 ± 1.9 |
| COc1ccc(-c2cc(=O)c3c(OC)c([C@@H]4O[C@H](C(=O)Nc5nccs5)[C@@H](O)[C@H](O)[C@H]4O)c(OC)cc3o2)cc1OC [Compound 23, (2S,3S,4R,5R,6S)-6-(2-(3,4-Dimethoxyphenyl)-5,7-dimethoxy-4-oxo-4H-chromen-6-yl)-3,4,5-trihydroxy-N-(thiazol-2-yl)tetrahydro-2H-pyran-2-carboxamide] | 35.1 ± 1 |
| CCCCNC(=O)[C@H]1O[C@@H](c2c(OC)cc3oc(-c4ccc(OC)c(OC)c4)cc(=O)c3c2OC)[C@H](O)[C@@H](O)[C@@H]1O [Compound 10, (2S,3S,4R,5R,6S)-6-(2-(3,4-Dimethoxyphenyl)-5,7-dimethoxy-4-oxo-4H-chromen-6-yl)-3,4,5-trihydroxy-N-butyltetrahydro-2H-pyran-2-carboxamide] | 33.3 ± 1.1 |
| CCCNC(=O)[C@H]1O[C@@H](c2c(OC)cc3oc(-c4ccc(OC)c(OC)c4)cc(=O)c3c2OC)[C@H](O)[C@@H](O)[C@@H]1O [Compound 8, (2S,3S,4R,5R,6S)-6-(2-(3,4-Dimethoxyphenyl)-5,7-dimethoxy-4-oxo-4H-chromen-6-yl)-3,4,5-trihydroxy-N-propyltetrahydro-2H-pyran-2-carboxamide] | 29.2 ± 1.1 |
| COc1ccc(-c2cc(=O)c3c(OC)c([C@@H]4O[C@H](C(=O)O)[C@@H](O)[C@H](O)[C@H]4O)c(OC)cc3o2)cc1OC [Compound 6, (2S,3S,4R,5R,6S)-6-(2-(3,4-Dimethoxyphenyl)-5,7-dimethoxy-4-oxo-4H-chromen-6-yl)-3,4,5-trihydroxytetrahydro-2H-pyran-2-carboxylic acid] | 237.3 ± 1.4 |
| O=c1cc(-c2ccc(O)c(O)c2)oc2c([C@@H]3O[C@H](CO)[C@@H](O)[C@H](O)[C@H]3O)c(O)cc(O)c12 [Compound 3, orientin, reference compound] | 5153 ± 31 |
| COc1ccc(-c2cc(=O)c3c(OC)c([C@@H]4O[C@H](C(=O)NCC5CCCCC5)[C@@H](O)[C@H](O)[C@H]4O)c(OC)cc3o2)cc1OC [Compound 18, (2S,3S,4R,5R,6S)—N-(Cyclohexylmethyl)-6-(2-(3,4-dimethoxyphenyl)-5,7-dimethoxy-4-oxo-4H-chromen-6-yl)-3,4,5-trihydroxytetrahydro-2H-pyran-2-carboxamide] | 26 ± 1.2 |
| CCCCCNC(=O)[C@H]1O[C@@H](c2c(OC)cc3oc(-c4ccc(OC)c(OC)c4)cc(=O)c3c2OC)[C@H](O)[C@@H](O)[C@@H]1O [Compound 12, (2S,3S,4R,5R,6S)-6-(2-(3,4-Dimethoxyphenyl)-5,7-dimethoxy-4-oxo-4H-chromen-6-yl)-3,4,5-trihydroxy-N-pentyltetrahydro-2H-pyran-2-carboxamide] | 28 ± 1.1 |
| CCCCCCNC(=O)[C@H]1O[C@@H](c2c(OC)cc3oc(-c4ccc(OC)c(OC)c4)cc(=O)c3c2OC)[C@H](O)[C@@H](O)[C@@H]1O [Compound 13, (2S,3S,4R,5R,6S)-6-(2-(3,4-Dimethoxyphenyl)-5,7-dimethoxy-4-oxo-4H-chromen-6-yl)-3,4,5-trihydroxy-N-hexyltetrahydro-2H-pyran-2-carboxamide] | 9.4 ± 0.9 |
| COc1ccc(-c2cc(=O)c3c(OC)c([C@@H]4O[C@H](C(=O)NC5CCCC5)[C@@H](O)[C@H](O)[C@H]4O)c(OC)cc3o2)cc1OC [Compound 16, (2S,3S,4R,5R,6S)—N-Cyclopentyl-6-(2-(3,4-dimethoxyphenyl)-5,7-dimethoxy-4-oxo-4H-chromen-6-yl)-3,4,5-trihydroxytetrahydro-2H-pyran-2-carboxamide] | 13.1 ± 1.1 |

Continued, values first:

| IC50 [µM] | Structure (SMILES) |
| --- | --- |
| 34.8 ± 1 | COc1ccc(-c2cc(=O)c3c(OC)c([C@@H]4O[C@H](C(=O)NCCF)[C@@H](O)[C@H](O)[C@H]4O)c(OC)cc3o2)cc1OC [Compound 26, (2S,3S,4R,5R,6S)-6-(2-(3,4-Dimethoxyphenyl)-5,7-dimethoxy-4-oxo-4H-chromen-6-yl)-3,4,5-trihydroxy-N-(2-fluoroethyl)tetrahydro-2H-pyran-2-carboxamide] |
| < 20 | COc1ccc(-c2cc(=O)c3c(OC)c([C@@H]4O[C@H](C(=O)N[C@H](C)C(F)(F)F)[C@@H](O)[C@H](O)[C@H]4O)c(OC)cc3o2)cc1OC [Compound 31, (2S,3S,4R,5R,6S)-6-(2-(3,4-Dimethoxyphenyl)-5,7-dimethoxy-4-oxo-4H-chromen-6-yl)-3,4,5-trihydroxy-N—((R)-1,1,1-trifluoropropan-2-yl) tetrahydro-2H-pyran-2-carboxamide] |
| 31.1 ± 1.2 | COc1ccc(-c2cc(=O)c3c(OC)c([C@@H]4O[C@H](C(=O)NCC(C)C)[C@@H](O)[C@H](O)[C@H]4O)c(OC)cc3o2)cc1OC [Compound 11, (2S,3S,4R,5R,6S)-6-(2-(3,4-Dimethoxyphenyl)-5,7-dimethoxy-4-oxo-4H-chromen-6-yl)-3,4,5-trihydroxy-N-isobutyltetrahydro-2H-pyran-2-carboxamide] |
| 33.5 ± 0.8 | COc1ccc(-c2cc(=O)c3c(OC)c([C@@H]4O[C@H](C(=O)NC56CC7CC(CC(C7)C5)C6)[C@@H](O)[C@H](O)[C@H]4O)c(OC)cc3o2)cc1OC [Compound 19, (2S,3S,4R,5R,6S)—N-(Adamantan-1-yl)-6-(2-(3,4-dimethoxyphenyl)-5,7-dimethoxy-4-oxo-4H-chromen-6-yl)-3,4,5-trihydroxytetrahydro-2H-pyran-2-carboxamide] |
| 25.8 ± 1.1 | COc1ccc(-c2cc(=O)c3c(OC)c([C@@H]4O[C@H](C(=O)NC5CC5)[C@@H](O)[C@H](O)[C@H]4O)c(OC)cc3o2)cc1OC [Compound 14, (2S,3S,4R,5R,6S)—N-Cyclopropyl-6-(2-(3,4-dimethoxyphenyl)-5,7-dimethoxy-4-oxo-4H-chromen-6-yl)-3,4,5-trihydroxytetrahydro-2H-pyran-2-carboxamide] |
| 135 | COC(=O)[C@H]1O[C@@H](c2c(OC)cc3oc(-c4ccc(OC)c(OC)c4)cc(=O)c3c2OC)[C@H](O)[C@@H](O)[C@@H]1O [Compound 7, Methyl (2S,3S,4R,5R,6S)-6-(2-(3,4-dimethoxyphenyl)-5,7-dimethoxy-4-oxo-4H-chromen-6-yl)-3,4,5-trihydroxytetrahydro-2H-pyran-2-carboxylate] |
| 239.2 ± 1.2 | COc1ccc(-c2cc(=O)c3c(OC)c([C@@H]4O[C@H](CO)[C@@H](O)[C@H](O)[C@H]4O)c(OC)cc3o2)cc1OC [Compound 5, 2-(3,4-Dimethoxyphenyl)-5,7-dimethoxy-6-((2S,3R,4R,5S,6R)-3,4,5-trihydroxy-6-(hydroxymethyl)tetrahydro-2H-pyran-2-yl)-4H-chromen-4-one] |

Same assay, conditions: vs isoorientin 1

| increase of potency against GSK-3β relative to 1 [fold] | Structure (SMILES) |
| --- | --- |
| 1.37 | COC(=O)[C@H]1O[C@@H](c2c(OC)cc3oc(-c4ccc(OC)c(OC)c4)cc(=O)c3c2OC)[C@H](O)[C@@H](O)[C@@H]1O [Compound 7, Methyl (2S,3S,4R,5R,6S)-6-(2-(3,4-dimethoxyphenyl)-5,7-dimethoxy-4-oxo-4H-chromen-6-yl)-3,4,5-trihydroxytetrahydro-2H-pyran-2-carboxylate] |
